The text below walks through data of patent US8722849B2, “Polypeptides” (Novo Nordisk A/S, priority 2011, dated 2014).

Data set [1] has as its target T1, human calcitonin receptor (Homo sapiens, UniProt P30988).
T1 construct: expressed in transfected cells; host or cells: BHK570
T1 sequence (P30988 25-474): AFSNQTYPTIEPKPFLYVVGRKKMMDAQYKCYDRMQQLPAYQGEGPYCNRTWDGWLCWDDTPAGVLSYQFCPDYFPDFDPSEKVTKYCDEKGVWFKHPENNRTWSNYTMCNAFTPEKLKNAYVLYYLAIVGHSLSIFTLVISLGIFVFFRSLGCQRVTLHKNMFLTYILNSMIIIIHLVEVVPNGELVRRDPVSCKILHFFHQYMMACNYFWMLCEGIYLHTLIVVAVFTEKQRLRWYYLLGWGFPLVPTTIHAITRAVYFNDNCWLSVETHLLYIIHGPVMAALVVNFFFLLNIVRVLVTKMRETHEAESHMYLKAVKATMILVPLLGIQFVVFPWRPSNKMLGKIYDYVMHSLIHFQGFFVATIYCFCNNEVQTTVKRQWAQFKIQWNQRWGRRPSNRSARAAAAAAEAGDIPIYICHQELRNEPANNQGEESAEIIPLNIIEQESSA
The data set is described as follows: Assay (II)a functional CRE-luciferase assay, human calcitonin receptor. Format: cell-based. The settings on record: Table 7; human calcitonin (CTa) receptor.

Data set [2] addresses T2, human amylin receptor (amylin 3(a) receptor: human calcitonin receptor + RAMP-3) (Homo sapiens, UniProt O60896+P30988).
T2 construct: expressed in transfected cells; host or cells: BHK570
T2 sequence (P30988 25-474): T1 sequence (P30988 25-474)
T2 sequence (O60896 24-148 partner): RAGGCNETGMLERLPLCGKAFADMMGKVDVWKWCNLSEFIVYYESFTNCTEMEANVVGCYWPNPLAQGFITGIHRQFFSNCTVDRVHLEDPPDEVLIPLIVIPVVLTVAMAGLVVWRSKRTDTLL
The data set can be described thus: Assay (II)a functional CRE-luciferase assay, human amylin receptor. Format: cell-based. The settings on record: Table 2; BHK amylin 3(a)-receptor/CRE-luc cells.

A short description of data set [3]: Assay (IV) determination of solubility. In kind it is physicochemical. The method, boiled down:
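Solubility is measured across pH 3.0–8.0 by mixing a ~500 nmol/ml aqueous polypeptide stock 1:1 with 100 mM glycylglycine or bistrispropane buffers. Samples stand 18 hours at room temperature, then are centrifuged and the soluble concentration is determined by HPLC.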

The nature of data set [4]: Assay (III) ThT fibrillation assay for physical stability. Format: physicochemical. The method, boiled down: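 Freshly prepared formulations, pH-adjusted, with 1 μM ThT; four or eight replicates incubated at 37 °C under 960 rpm orbital shaking. Fluorescence (ex 444/em 485 nm) read every 20 min; […]. Peptide concentration measured by RP-HPLC before and after the run.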

The mark [5] stands for this setting: bistrispropane buffer, pH 6, pH 6.0, read-out: Solubility pH 6.0.
Where [6] appears, read: bistrispropane buffer, pH 6.5, pH 6.5, read-out: Solubility pH 6.5.
Where [7] appears, read: bistrispropane buffer, pH 7, pH 7.0, 18 hours at room temperature, Table 3, read-out: Solubility pH 7.0.
Setting [8] is: bistrispropane buffer, pH 7, pH 7.0, read-out: Solubility pH 7.0.
[9] abbreviates: bistrispropane buffer, pH 7.5, pH 7.5, read-out: Solubility pH 7.5.
Setting [10] is: bistrispropane buffer, pH 8, pH 8.0, read-out: Solubility pH 8.0.
[11] abbreviates: glycylglycine buffer, pH 3, pH 3.0, read-out: Solubility pH 3.0.
Where [12] appears, read: glycylglycine buffer, pH 4, pH 4.0, 18 hours at room temperature, Table 2, read-out: Solubility pH 4.0.
[13] abbreviates: glycylglycine buffer, pH 4, pH 4.0, read-out: Solubility pH 4.0.
Setting [14] is: glycylglycine buffer, pH 5, pH 5.0, read-out: Solubility pH 5.0.

Values after ≈ are worked out from the molar mass of the structure shown. Read-outs that look alike come from different tables or passages of the source. Starred links: 1 amine or outer side, 2 acyl side, 3 side chain; linkers in the order of their positions; H or OH if unused. Positions of bridges follow the written chain, without caps; N, C: chain ends. Residues, ends and D or L forms follow the SMILES beside them. Groups on a side chain read outwards from the residue. *: point of attachment. C20 diacid = O=C(O)CCCCCCCCCCCCCCCCCCC(=O)*; C18 diacid = O=C(O)CCCCCCCCCCCCCCCCC(=O)*; γGlu = O=C(O)[C@H](CCC(=O)[*:2])N[*:1] A value given as a limit tells only on which side of the number the result lay.

Turning to `CC[C@H](C)[C@H](NC(=O)[C@@H]1CCCN1C(=O)CNC(=O)[C@H](Cc1ccccc1)NC(=O)[C@H](CC(N)=O)NC(=O)[C@H](CC(N)=O)NC(=O)[C@H](CO)NC(=O)[C@H](CO)NC(=O)[C@H](Cc1c[nH]cn1)NC(=O)[C@H](Cc1c[nH]cn1)NC(=O)[C@H](CC(C)C)NC(=O)[C@H](Cc1ccccc1)NC(=O)[C@H](CCC(=O)O)NC(=O)[C@H](C)NC(=O)[C@H](CC(C)C)NC(=O)[C@H](CCCNC(=N)N)NC(=O)[C@H](CCC(N)=O)NC(=O)[C@@H](NC(=O)[C@H](C)NC(=O)[C@@H]1CSSC[C@H](NC(=O)CNC(=O)CC[C@H](NC(=O)CCCCCCCCCCCCCCCCCCC(=O)O)C(=O)O)C(=O)N[C@@H](CC(N)=O)C(=O)N[C@@H]([C@@H](C)O)C(=O)N[C@@H](C)C(=O)N[C@@H]([C@@H](C)O)C(=O)N1)[C@@H](C)O)C(=O)N[C@@H](CC(C)C)C(=O)N1CCC[C@H]1C(=O)N1CCC[C@H]1C(=O)N[C@H](C(=O)N[C@@H](CC(N)=O)C(=O)N[C@H](C(=O)NCC(=O)N[C@@H](CO)C(=O)N[C@@H](CC(N)=O)C(=O)N[C@H](C(=O)N1CCC[C@H]1C(N)=O)[C@@H](C)O)C(C)C)[C@@H](C)O` [Example 91, N-alpha-[(S)-4-Carboxy-4-(19-carboxynonadecanoylamino)butyryl]-[Gly1,Glu14,His17,Pro37]-pramlintide] ({C20 diacid-γGlu}-GCNTATCATQRLAEFLHHSSNNFGPILPPTNVGSNTP-NH2; disulfide 2-7 (inferred); C-terminus assumed), the figures for the EC50 in data set [1] and in data set [2] were 0.052 nM and 0.054 nM, respectively. Also, the solubility at 18 h in data set [3] (setting [5]) is more than 200 µM; in data set [3] (setting [6]) it was more than 200 µM; in data set [3] (setting [7]) it was more than 200 µM; in data set [3] (bistrispropane buffer, pH 7, pH 7.0, Table 8, read-out: Solubility pH 7.0), more than 200 µM; in data set [3] (setting [8]) it was more than 200 µM; in data set [3] (setting [9]), more than 200 µM. Also, the solubility at 18 h in data set [3] (setting [10]), in data set [3] (setting [11]), in data set [3] (setting [12]), in data set [3] (setting [13]) and in data set [3] (setting [14]) was more than 200 µM in each case. Also, the “ThT pH 4.0 lag time” value in data set [4] (Table 8) and in data set [4] (ThT fibrillation assay) was 29 h throughout. Moreover, the “ThT pH 4.0 lag time (h)” value in data set [4] (ThT fibrillation assay) is 29 h.
For the molecule `CC[C@H](C)[C@H](NC(=O)[C@@H]1CCCN1C(=O)CNC(=O)[C@H](Cc1ccccc1)NC(=O)[C@H](CC(N)=O)NC(=O)[C@H](CC(N)=O)NC(=O)[C@H](CO)NC(=O)[C@H](CO)NC(=O)[C@H](Cc1c[nH]cn1)NC(=O)[C@H](Cc1c[nH]cn1)NC(=O)[C@H](CC(C)C)NC(=O)[C@H](Cc1ccccc1)NC(=O)[C@H](CCC(=O)O)NC(=O)[C@H](C)NC(=O)[C@H](CC(C)C)NC(=O)[C@H](CCCNC(=N)N)NC(=O)[C@H](CCC(N)=O)NC(=O)[C@@H](NC(=O)[C@H](C)NC(=O)[C@@H]1CSSC[C@H](NC(=O)[C@H](Cc2c[nH]cn2)NC(=O)CNC(=O)CC[C@H](NC(=O)CCCCCCCCCCCCCCCCCCC(=O)O)C(=O)O)C(=O)N[C@@H](CC(N)=O)C(=O)N[C@@H]([C@@H](C)O)C(=O)N[C@@H](C)C(=O)N[C@@H]([C@@H](C)O)C(=O)N1)[C@@H](C)O)C(=O)N[C@@H](CC(C)C)C(=O)N1CCC[C@H]1C(=O)N1CCC[C@H]1C(=O)N[C@H](C(=O)N[C@@H](CC(N)=O)C(=O)N[C@H](C(=O)NCC(=O)N[C@@H](CO)C(=O)N[C@@H](CC(N)=O)C(=O)N[C@H](C(=O)N1CCC[C@H]1C(N)=O)[C@@H](C)O)C(C)C)[C@@H](C)O` [Example 92, N-alpha-[(S)-4-Carboxy-4-(19-carboxynonadecanoylamino)butyryl]-Gly-[His1,Glu14,His17,Pro37]-pramlintide] ({C20 diacid-γGlu}-GHCNTATCATQRLAEFLHHSSNNFGPILPPTNVGSNTP-NH2; disulfide 3-8 (inferred); C-terminus assumed), the EC50 in data set [1] stood at 0.049 nM; in data set [2] it was 0.052 nM. Moreover, the solubility at 18 h in data set [3] (setting [5]), in data set [3] (setting [6]), in data set [3] (setting [7]), in data set [3] (setting [8]), in data set [3] (setting [9]) and in data set [3] (setting [10]) was more than 200 µM throughout. For the same molecule, the solubility at 18 h in data set [3] (setting [11]), in data set [3] (setting [12]), in data set [3] (setting [13]) and in data set [3] (setting [14]) was more than 200 µM in each case. The “ThT pH 4.0 lag time (h)” value in data set [4] (ThT fibrillation assay) was 15.3 h.
Take `CC[C@H](C)[C@H](NC(=O)[C@@H]1CCCN1C(=O)CNC(=O)[C@H](Cc1ccccc1)NC(=O)[C@H](CC(N)=O)NC(=O)[C@H](CC(N)=O)NC(=O)[C@H](CO)NC(=O)[C@H](CO)NC(=O)[C@H](Cc1c[nH]cn1)NC(=O)[C@H](Cc1c[nH]cn1)NC(=O)[C@H](CC(C)C)NC(=O)[C@H](Cc1ccccc1)NC(=O)[C@H](CCC(=O)O)NC(=O)[C@H](C)NC(=O)[C@H](CC(C)C)NC(=O)[C@H](CCCNC(=N)N)NC(=O)[C@H](CCC(N)=O)NC(=O)[C@@H](NC(=O)[C@H](C)NC(=O)[C@@H]1CSSC[C@H](NC(=O)[C@@H](N)CCCCNC(=O)CC[C@H](NC(=O)CCCCCCCCCCCCCCCCC(=O)O)C(=O)O)C(=O)N[C@@H](CC(N)=O)C(=O)N[C@@H]([C@@H](C)O)C(=O)N[C@@H](C)C(=O)N[C@@H]([C@@H](C)O)C(=O)N1)[C@@H](C)O)C(=O)N[C@@H](CC(C)C)C(=O)N1CCC[C@H]1C(=O)N1CCC[C@H]1C(=O)N[C@H](C(=O)N[C@@H](CC(N)=O)C(=O)N[C@H](C(=O)NCC(=O)N[C@@H](CO)C(=O)N[C@@H](Cc1c[nH]cn1)C(=O)N[C@H](C(=O)N[C@@H](Cc1ccc(O)cc1)C(N)=O)[C@@H](C)O)C(C)C)[C@@H](C)O` [Example 94, N-epsilon1-[(S)-4-Carboxy-4-(17-carboxyheptadecanoylamino)butyryl]-[Glu14,His17,His35]-pramlintide] (H-K([γGlu-C18 diacid])CNTATCATQRLAEFLHHSSNNFGPILPPTNVGSHTY-NH2; disulfide 2-7 (inferred); N-terminus assumed): the EC50 was determined as 0.286 nM in data set [1] and 0.119 nM in data set [2]. The solubility at 18 h in data set [3] (setting [5]) is more than 200 µM; in data set [3] (setting [6]) it was more than 200 µM; in data set [3] (setting [7]), 138 µM (≈ 614 µg/mL); in data set [3] (setting [8]), 138 µM (≈ 614 µg/mL); in data set [3] (setting [9]) it was more than 200 µM; in data set [3] (setting [10]) it was more than 200 µM. Besides, the solubility at 18 h in data set [3] (setting [11]), in data set [3] (setting [12]), in data set [3] (setting [13]) and in data set [3] (setting [14]) was more than 200 µM in each case. Moreover, the “ThT pH 4.0 lag time (h)” value in data set [4] (ThT fibrillation assay) came out at 11.3 h.
